Like-named read-outs stand apart in the source and are kept apart here.
Columns and labels:
[1] = tested on: EBC-1 lung cancer cell line; experiment: High-throughput screening, CellTiter-Glo cell viability assay at 100 nM; assay type: cell-based, human; conditions: Homo sapiens, EBC-1, HTS, compounds at 100 nM, 72 h, read-out: cytotoxicity expressed in IC50, EBC-1 (results of High throughput screening)
[2] = tested on: H2228 lung cancer cell line; experiment: as above; assay type: cell-based, human; conditions: Homo sapiens, NCI-H2228, HTS, compounds at 100 nM, 72 h, read-out: cytotoxicity expressed in IC50, H2228 (results of High throughput screening)
[3] = tested on: Capan-1 (pancreas, adenocarcinoma) cells; experiment: Cell viability assay, CellTiter-Glo (Example 21); assay type: cell-based, human; conditions: 72 h treatment
Description: (§1) Effect of the selected compounds on cancer cell viability was measured via CellTiter-Glo® luminescent cell viability assay (Promega, Madison, WI, USA) according to the manufacturer's instructions. Cells were plated onto a flat-bottomed, white 96 well plate (BRANDplates®, cat. no.: 781965). Density of the seeded cells was optimized based on their size and growth rate, as the follows: Panc-1:750 cells/well; DU 145, PC-3, Capan-1, MIA PaCa-2, SCC-25, FaDu and EBC-1: 1000 cells/well; LNCaP, Detroit 562, MDA-MB-231 and MDA-MB-453 1500 cells/well. […] After the treatment, the luminescence signal was recorded using a microplate reader (BioTek Synergy 2 Multi-Mode Reader, BioTek, Winooski, VT, USA). Dose-response curves were generated by GraphPad Prism 8.4.2. software using a non-linear regression model (variable slope, four parameters), (see FIGS. 12-51).

[4] = tested on: DU 145 (prostate, carcinoma) cells; experiment: Cell viability assay, CellTiter-Glo (Example 21); assay type: cell-based, human; conditions: 72 h
Description: as §1

[5] = tested on: FaDu (pharynx, squamous cell carcinoma) cells; experiment: Cell viability assay, CellTiter-Glo (Example 21); assay type: cell-based, human; conditions: 72 h treatment
Description: as §1

[6] = tested on: MDA-MB-231 (breast, adenocarcinoma) cells; experiment: Cell viability assay, CellTiter-Glo (Example 21); assay type: cell-based, human; conditions: 72 h treatment
Description: as §1

[7] = tested on: MDA-MB-453 (breast, carcinoma) cells; experiment: Cell viability assay, CellTiter-Glo (Example 21); assay type: cell-based, human; conditions: 72 h treatment
Description: as §1

[8] = tested on: Panc-1 (pancreas, carcinoma) cells; experiment: Cell viability assay, CellTiter-Glo (Example 21); assay type: cell-based, human; conditions: 72 h treatment
Description: as §1

[9] = tested on: SCC-25 (tongue, squamous cell carcinoma) cells; experiment: Cell viability assay, CellTiter-Glo (Example 21); assay type: cell-based, human; conditions: 72 h treatment
Description: as §1

[10] = tested on: Panc-1 human cell line; experiment: Cytotoxicity on Panc-1, xCELLigence SP, IC50 after 24 h, 48 h, 72 h and 96 h (Example 22)
[11] = tested on: Panc1 pancreatic cancer cell line; experiment: CellTiter-Glo IC50 (Example 19); assay type: cell-based; conditions: Homo sapiens, PANC-1, 72 h
Description: Some representative imipridones and ONC212 as reference were further tested on the following human malignant cell lines: PC3 and LNCap (prostate carcinoma); BxPC3, MiaPaCa2 and Panc1 (pancreatic cancer); A549, HCC827, H1993 and H520 (lung carcinoma); MDA-MB-453 and MDA-MB-231 (breast cancer) (see Table 2 and FIGS. 1-11).
(§2) Cell lines were maintained according to the instructions provided by ATCC (https://www.lgcstandards-atcc.org/) in a 5% CO2 humidified incubator maintained at 37° C. temperature. Effects of compounds on cell viability were measured via CellTiter-Glo® luminescent cell viability assay (Promega, Madison, WI, USA) Cells were plated at 1000 cells/well onto a flat-bottomed, white 96 well plate (BRANDplates, cat. no.: 781965). […] After the treatment, medium was removed and CellTiter-Glo® reagent was added. The luminescence signal was recorded using a microplate reader (BioTek Synergy 2 Multi-Mode Reader, BioTek, Winooski, VT, USA).
(§3) Cell viability data (% of untreated control cells) was evaluated with Microsoft Excel. Dose-response curves (using a non-linear regression model, log (inhibitor) vs response, variable slope) were generated and IC50 values were determined using Graph Pad Prism 5.02 software (GraphPad Software, San Diego, CA, USA).

[12] = tested on: Detroit 562 cell line; experiment: Additional in vitro IC50 tests (Table 3); assay type: cell-based; conditions: Homo sapiens
Description: as §2, §3

[13] = tested on: EBC-1 cell line; experiment: Additional in vitro IC50 tests (Table 3); assay type: cell-based; conditions: Homo sapiens
Description: as §2, §3

[14] = tested on: Fadu cell line; experiment: Additional in vitro IC50 tests (Table 3); assay type: cell-based; conditions: Homo sapiens
Description: as §2, §3

[15] = tested on: H2228 cell line; experiment: Additional in vitro IC50 tests (Table 3); assay type: cell-based; conditions: Homo sapiens, NCI-H2228
Description: as §2, §3

[16] = tested on: SCC-25 cell line; experiment: Additional in vitro IC50 tests (Table 3); assay type: cell-based; conditions: Homo sapiens
Description: as §2, §3

[17] = PANC-1, 72 h, read-out: IC50 (72 h) [nM]
[18] = PANC-1, 96 h, read-out: IC50 (96 h) [nM]

| Compound | Capan-1 (pancreas, adenocarcinoma) cell viability (% of control) ([3]; 3.7 nM) | Capan-1 (pancreas, adenocarcinoma) cell viability (% of control) ([3]; 11.1 nM) | Capan-1 (pancreas, adenocarcinoma) cell viability (% of control) ([3]; 100 nM) | Capan-1 (pancreas, adenocarcinoma) cell viability (% of control) ([3]; 300 nM) | DU 145 cell viability ([4]; 3.7 nM) | DU 145 cell viability ([4]; 11.1 nM) | DU 145 cell viability ([4]; 100 nM) | DU 145 cell viability ([4]; 300 nM) | MDA-MB-231 (breast, adenocarcinoma) cell viability (% of control) ([6]; 3.7 nM) | MDA-MB-231 (breast, adenocarcinoma) cell viability (% of control) ([6]; 11.1 nM) | MDA-MB-231 (breast, adenocarcinoma) cell viability (% of control) ([6]; 100 nM) | MDA-MB-231 (breast, adenocarcinoma) cell viability (% of control) ([6]; 300 nM) | MDA-MB-453 (breast, carcinoma) cell viability (% of control) ([7]; 3.7 nM) | MDA-MB-453 (breast, carcinoma) cell viability (% of control) ([7]; 11.1 nM) | MDA-MB-453 (breast, carcinoma) cell viability (% of control) ([7]; 100 nM) | MDA-MB-453 (breast, carcinoma) cell viability (% of control) ([7]; 300 nM) | Panc-1 (pancreas, carcinoma) cell viability (% of control) ([8]; 3.7 nM) | Panc-1 (pancreas, carcinoma) cell viability (% of control) ([8]; 11.1 nM) | Panc-1 (pancreas, carcinoma) cell viability (% of control) ([8]; 100 nM) | Panc-1 (pancreas, carcinoma) cell viability (% of control) ([8]; 300 nM) | further results |
| --- | --- | --- | --- | --- | --- | --- | --- | --- | --- | --- | --- | --- | --- | --- | --- | --- | --- | --- | --- | --- | --- |
| O=C1C2=C(CCN(Cc3cccc(F)c3)C2)N2CCN=C2N1Cc1ccc(C(F)(F)F)cc1 [I/3, reference compound] | 102.7 ± 6.9 % of control | 101.5 ± 5.5 % of control | 38.7 ± 2.8 % of control | 33.0 ± 2.2 % of control | 102.0 ± 3.5 % of control | 95.9 ± 5.1 % of control | 7.1 ± 1.6 % of control | 7.2 ± 1.2 % of control | 101.4 ± 1.4 % of control | 99.8 ± 1.8 % of control | 56.5 ± 3.4 % of control | 53.7 ± 3.1 % of control | 110.3 ± 7.7 % of control | 97.0 ± 13.3 % of control | 33.2 ± 2.0 % of control | 29.8 ± 1.5 % of control | 105.8 ± 4.0 % of control | 105.7 ± 4.2 % of control | 59.9 ± 17.3 % of control | 53.9 ± 6.5 % of control | IC50 [1]: < 100 nM; IC50 [2]: < 100 nM; FaDu (pharynx, squamous cell carcinoma) cell viability (% of control) ([5]; 3.7 nM): 101.6 ± 3.4 % of control; FaDu (pharynx, squamous cell carcinoma) cell viability (% of control) ([5]; 11.1 nM): 100.9 ± 5.9 % of control; FaDu (pharynx, squamous cell carcinoma) cell viability (% of control) ([5]; 100 nM): 26.2 ± 7.9 % of control; FaDu (pharynx, squamous cell carcinoma) cell viability (% of control) ([5]; 300 nM): 22.4 ± 5.9 % of control; SCC-25 (tongue, squamous cell carcinoma) cell viability (% of control) ([9]; 3.7 nM): 101.0 ± 4.9 % of control; SCC-25 (tongue, squamous cell carcinoma) cell viability (% of control) ([9]; 11.1 nM): 95.1 ± 5.1 % of control; SCC-25 (tongue, squamous cell carcinoma) cell viability (% of control) ([9]; 100 nM): 34.9 ± 3.9 % of control; SCC-25 (tongue, squamous cell carcinoma) cell viability (% of control) ([9]; 300 nM): 33.1 ± 1.7 % of control; IC50 [10, 17]: 45.3 ± 3.34 nM; IC50 [10, 18]: 22.6 ± 0.856 nM |
| O=C1C2=C(CCN(Cc3cc(F)cc(F)c3)C2)N2CCN=C2N1Cc1ccc(C(F)(F)F)cc1 [I/30, 7-(3,5-Difluorobenzyl)-4-(4-(trifluoromethyl)benzyl)-2,4,6,7,8,9-hexahydroimidazo[1,2-a]pyrido[3,4-e]pyrimidin-5(1H)-one] | 100.8 ± 5.3 % of control | 38.4 ± 4.5 % of control | 34.0 ± 2.8 % of control | 33.1 ± 1.7 % of control | 37.2 ± 10.4 % of control | 7.0 ± 0.9 % of control | 7.0 ± 1.1 % of control | 8.0 ± 2.9 % of control | 100.0 ± 4.5 % of control | 59.9 ± 2.1 % of control | 52.1 ± 1.8 % of control | 52.6 ± 2.5 % of control | 58.0 ± 24.4 % of control | 34.8 ± 3.3 % of control | 31.1 ± 1.8 % of control | 28.9 ± 1.0 % of control | 100.8 ± 3.4 % of control | 54.4 ± 3.5 % of control | 46.4 ± 3.1 % of control | 49.1 ± 0.2 % of control | IC50 [1]: < 100 nM; IC50 [2]: < 100 nM; IC50 [11]: 3 nM; IC50 [12]: 2 nM; IC50 [13]: 5 nM; IC50 [14]: 5 nM; IC50 [15]: 5 nM; IC50 [16]: 6 nM; SCC-25 (tongue, squamous cell carcinoma) cell viability (% of control) ([9]; 3.7 nM): 78.7 ± 15.0 % of control; SCC-25 (tongue, squamous cell carcinoma) cell viability (% of control) ([9]; 11.1 nM): 35.0 ± 14.5 % of control; SCC-25 (tongue, squamous cell carcinoma) cell viability (% of control) ([9]; 100 nM): 32.9 ± 2.1 % of control; SCC-25 (tongue, squamous cell carcinoma) cell viability (% of control) ([9]; 300 nM): 36.3 ± 2.6 % of control; IC50 [10, 17]: 2.08 ± 0.267 nM; IC50 [10, 18]: 0.517 ± 0.0232 nM |
| O=C1C2=C(CCN(Cc3cc(F)cc(F)c3)C2)N2CCN=C2N1Cc1ccc(Cl)cc1 [I/124, 4-(4-Chlorobenzyl)-7-(3,5-difluorobenzyl)-2,4,6,7,8,9-hexahydroimidazo[1,2-a]pyrido[3,4-e]pyrimidin-5(1H)-one] | 88.5 ± 1.8 % of control | 35.3 ± 3.1 % of control | 33.6 ± 1.1 % of control | 34.6 ± 2.4 % of control | 10.0 ± 1.4 % of control | 7.0 ± 1.1 % of control | 8.0 ± 1.0 % of control | 7.7 ± 1.8 % of control | 82.4 ± 7.2 % of control | 59.4 ± 4.5 % of control | 55.9 ± 5.3 % of control | 54.2 ± 2.4 % of control | 37.9 ± 3.2 % of control | 33.5 ± 1.8 % of control | 31.2 ± 2.2 % of control | 30.9 ± 1.4 % of control | 99.7 ± 3.0 % of control | 56.9 ± 0.2 % of control | 50.9 ± 0.3 % of control | 51.2 ± 0.4 % of control | IC50 [11]: 2 nM; IC50 [12]: < 1 nM; IC50 [13]: 3 nM; IC50 [14]: 2 nM; IC50 [15]: 3 nM; IC50 [16]: 4 nM; FaDu (pharynx, squamous cell carcinoma) cell viability (% of control) ([5]; 3.7 nM): 45.6 ± 20.7 % of control; FaDu (pharynx, squamous cell carcinoma) cell viability (% of control) ([5]; 11.1 nM): 26.1 ± 6.2 % of control; FaDu (pharynx, squamous cell carcinoma) cell viability (% of control) ([5]; 100 nM): 24.5 ± 4.6 % of control; FaDu (pharynx, squamous cell carcinoma) cell viability (% of control) ([5]; 300 nM): 24.7 ± 5.0 % of control; SCC-25 (tongue, squamous cell carcinoma) cell viability (% of control) ([9]; 3.7 nM): 47.2 ± 5.8 % of control; SCC-25 (tongue, squamous cell carcinoma) cell viability (% of control) ([9]; 11.1 nM): 34.3 ± 2.0 % of control; SCC-25 (tongue, squamous cell carcinoma) cell viability (% of control) ([9]; 100 nM): 37.5 ± 1.4 % of control; SCC-25 (tongue, squamous cell carcinoma) cell viability (% of control) ([9]; 300 nM): 42.3 ± 5.2 % of control; IC50 [10, 17]: 1.31 ± 0.286 nM; IC50 [10, 18]: < 0.25 nM |
